Test results reported in PubChem BioAssay AID2060330 (Molecular Pharmacology Branch, DTP, NCI, 2025).

System: LG0703-F948-PDC spheroids with HUVEC/MSC, viability
Assay: Anticancer human tumor LG0703-F948-PDC patient-derived lung adenocarcinoma cell line growth inhibition [IpAb]
Details: for IC50: curve of first compound; for viability, T/C: stronger effect = lower value
In short: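 Combinations with ipatasertib or abemaciclib were tested on tumour spheroids holding HUVEC (25%) and MSC (15%) alongside 60% malignant cells. Top concentration was at or near clinical Cmax (10 microM if undefined), descending in half-log steps.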

[1] = second compound 0.1 µM, first compound 0.0316 µM
[2] = second compound 0.1 µM, first compound 0.1 µM
[3] = second compound 0.1 µM, first compound 0.316 µM
[4] = second compound 0.1 µM, first compound 1 µM
[5] = second compound 0.1 µM, first compound 3.16 µM
[6] = second compound 0.1 µM, first compound 10 µM
[7] = second compound 0.316 µM, first compound 0.0316 µM
[8] = second compound 0.316 µM, first compound 0.1 µM
[9] = second compound 0.316 µM, first compound 0.316 µM
[10] = second compound 0.316 µM, first compound 1 µM
[11] = second compound 0.316 µM, first compound 3.16 µM
[12] = second compound 0.316 µM, first compound 10 µM
[13] = second compound 1 µM, first compound 0.0316 µM
[14] = second compound 1 µM, first compound 0.1 µM
[15] = second compound 1 µM, first compound 0.316 µM
[16] = second compound 1 µM, first compound 1 µM
[17] = second compound 1 µM, first compound 3.16 µM
[18] = second compound 1 µM, first compound 10 µM
[19] = second compound 3.16 µM, first compound 0.0316 µM
[20] = second compound 3.16 µM, first compound 0.1 µM
[21] = second compound 3.16 µM, first compound 0.316 µM
[22] = second compound 3.16 µM, first compound 1 µM
[23] = second compound 3.16 µM, first compound 3.16 µM
[24] = second compound 3.16 µM, first compound 10 µM
[25] = second compound 10 µM, first compound 0.0316 µM
[26] = second compound 10 µM, first compound 0.1 µM
[27] = second compound 10 µM, first compound 0.316 µM
[28] = second compound 10 µM, first compound 1 µM
[29] = second compound 10 µM, first compound 3.16 µM
[30] = second compound 10 µM, first compound 10 µM
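Note: spheroids exposed to compounds for seven days before readout.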
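Throughout, for viability, T/C: T/C percent relative to DMSO vehicle wells set as 100% viability.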

## C=CC(=O)N1CCN(c2nc(=O)n(-c3c(C)ccnc3C(C)C)c3nc(-c4c(O)cccc4F)c(F)cc23)C(C)C1 (stereo not given) + CC(C)NCC(C(=O)N1CCN(c2ncnc3c2C(C)CC3O)CC1)c1ccc(Cl)cc1
Second compound 0.1 µM
  IC50: > 10000 nM
Second compound 0.316 µM
  IC50: > 10000 nM
Second compound 1 µM
  IC50: 3340 nM
Second compound 3.16 µM
  IC50: < 31.6 nM
Second compound 10 µM
  IC50: < 31.6 nM
[1]
  viability, T/C: 87.5%
[2]
  viability, T/C: 86.1%
[3]
  viability, T/C: 92.7%
[4]
  viability, T/C: 91.1%
[5]
  viability, T/C: 90.6%
[6]
  viability, T/C: 54.3%
[7]
  viability, T/C: 64.5%
[8]
  viability, T/C: 67.1%
[9]
  viability, T/C: 62.6%
[10]
  viability, T/C: 71.6%
[11]
  viability, T/C: 73.5%
[12]
  viability, T/C: 46.4%
[13]
  viability, T/C: 54.9%
[14]
  viability, T/C: 56.5%
[15]
  viability, T/C: 58%
[16]
  viability, T/C: 54.4%
[17]
  viability, T/C: 50.8%
[18]
  viability, T/C: 34.5%
[19]
  viability, T/C: 44.5%
[20]
  viability, T/C: 52.9%
[21]
  viability, T/C: 48.5%
[22]
  viability, T/C: 47%
[23]
  viability, T/C: 45.6%
[24]
  viability, T/C: 30.7%
[25]
  viability, T/C: 40%
[26]
  viability, T/C: 39%
[27]
  viability, T/C: 40.9%
[28]
  viability, T/C: 42.7%
[29]
  viability, T/C: 38.1%
[30]
  viability, T/C: 22.5%

## CC(C)(C)c1cnc(CSc2cnc(NC(=O)C3CCNCC3)s2)o1 + CC(C)NCC(C(=O)N1CCN(c2ncnc3c2C(C)CC3O)CC1)c1ccc(Cl)cc1
Second compound 0.1 µM
  IC50: 74.3 nM
Second compound 0.316 µM
  IC50: 36.9 nM
Second compound 1 µM
  IC50: 15.5 nM
Second compound 3.16 µM
  IC50: < 9.49 nM
Second compound 10 µM
  IC50: < 9.49 nM
Second compound 0.1 µM, first compound 0.00949 µM
  viability, T/C: 78.5%
Second compound 0.1 µM, first compound 0.03 µM
  viability, T/C: 74%
Second compound 0.1 µM, first compound 0.0949 µM
  viability, T/C: 43.3%
Second compound 0.1 µM, first compound 0.3 µM
  viability, T/C: 0.48%
Second compound 0.1 µM, first compound 0.949 µM
  viability, T/C: 0.41%
Second compound 0.1 µM, first compound 3 µM
  viability, T/C: 0.23%
Second compound 0.316 µM, first compound 0.00949 µM
  viability, T/C: 61.5%
Second compound 0.316 µM, first compound 0.03 µM
  viability, T/C: 51.2%
Second compound 0.316 µM, first compound 0.0949 µM
  viability, T/C: 30.8%
Second compound 0.316 µM, first compound 0.3 µM
  viability, T/C: 0.34%
Second compound 0.316 µM, first compound 0.949 µM
  viability, T/C: 0.3%
Second compound 0.316 µM, first compound 3 µM
  viability, T/C: 0.29%
Second compound 1 µM, first compound 0.00949 µM
  viability, T/C: 52%
Second compound 1 µM, first compound 0.03 µM
  viability, T/C: 47.5%
Second compound 1 µM, first compound 0.0949 µM
  viability, T/C: 24.2%
Second compound 1 µM, first compound 0.3 µM
  viability, T/C: 0.43%
Second compound 1 µM, first compound 0.949 µM
  viability, T/C: 0.34%
Second compound 1 µM, first compound 3 µM
  viability, T/C: 0.31%
Second compound 3.16 µM, first compound 0.00949 µM
  viability, T/C: 44.7%
Second compound 3.16 µM, first compound 0.03 µM
  viability, T/C: 37.4%
Second compound 3.16 µM, first compound 0.0949 µM
  viability, T/C: 15.4%
Second compound 3.16 µM, first compound 0.3 µM
  viability, T/C: 0.55%
Second compound 3.16 µM, first compound 0.949 µM
  viability, T/C: 1.3%
Second compound 3.16 µM, first compound 3 µM
  viability, T/C: 0.69%
Second compound 10 µM, first compound 0.00949 µM
  viability, T/C: 35.1%
Second compound 10 µM, first compound 0.03 µM
  viability, T/C: 31.5%
Second compound 10 µM, first compound 0.0949 µM
  viability, T/C: 28.2%
Second compound 10 µM, first compound 0.3 µM
  viability, T/C: 1.21%
Second compound 10 µM, first compound 0.949 µM
  viability, T/C: 0.81%
Second compound 10 µM, first compound 3 µM
  viability, T/C: 0.34%

## Cn1ncc(Cl)c1-c1cc(C(=O)NC(CN)Cc2cccc(F)c2)sc1Cl (stereo not given) + CC(C)NCC(C(=O)N1CCN(c2ncnc3c2C(C)CC3O)CC1)c1ccc(Cl)cc1
Second compound 0.1 µM
  IC50: 714 nM
Second compound 0.316 µM
  IC50: 925 nM
Second compound 1 µM
  IC50: 522 nM
Second compound 3.16 µM
  IC50: < 31.6 nM
Second compound 10 µM
  IC50: < 31.6 nM
[1]
  viability, T/C: 75.9%
[2]
  viability, T/C: 75.1%
[3]
  viability, T/C: 53.7%
[4]
  viability, T/C: 53.4%
[5]
  viability, T/C: 15.4%
[6]
  viability, T/C: 0.11%
[7]
  viability, T/C: 60%
[8]
  viability, T/C: 57.1%
[9]
  viability, T/C: 53.8%
[10]
  viability, T/C: 50.2%
[11]
  viability, T/C: 18.7%
[12]
  viability, T/C: 0.1%
[13]
  viability, T/C: 54.7%
[14]
  viability, T/C: 50.5%
[15]
  viability, T/C: 49.4%
[16]
  viability, T/C: 48.1%
[17]
  viability, T/C: 11%
[18]
  viability, T/C: 0.1%
[19]
  viability, T/C: 41.2%
[20]
  viability, T/C: 44.9%
[21]
  viability, T/C: 43.7%
[22]
  viability, T/C: 40.5%
[23]
  viability, T/C: 18.9%
[24]
  viability, T/C: 0.1%
[25]
  viability, T/C: 41.8%
[26]
  viability, T/C: 42.1%
[27]
  viability, T/C: 35%
[28]
  viability, T/C: 39.3%
[29]
  viability, T/C: 9.68%
[30]
  viability, T/C: 0.15%

## Cn1nccc1Nc1nccc(-c2ccn(C(CO)c3ccc(Cl)c(F)c3)c(=O)c2)n1 (stereo not given) + CC(C)NCC(C(=O)N1CCN(c2ncnc3c2C(C)CC3O)CC1)c1ccc(Cl)cc1
Second compound 0.1 µM
  IC50: 502 nM
Second compound 0.316 µM
  IC50: 97 nM
Second compound 1 µM
  IC50: < 31.6 nM
Second compound 3.16 µM
  IC50: < 31.6 nM
Second compound 10 µM
  IC50: < 31.6 nM
[1]
  viability, T/C: 67.3%
[2]
  viability, T/C: 66.3%
[3]
  viability, T/C: 49.8%
[4]
  viability, T/C: 39.7%
[5]
  viability, T/C: 50.3%
[6]
  viability, T/C: 37.6%
[7]
  viability, T/C: 64.7%
[8]
  viability, T/C: 49.4%
[9]
  viability, T/C: 36.5%
[10]
  viability, T/C: 28%
[11]
  viability, T/C: 32.5%
[12]
  viability, T/C: 27.1%
[13]
  viability, T/C: 45%
[14]
  viability, T/C: 39.8%
[15]
  viability, T/C: 21.7%
[16]
  viability, T/C: 15.3%
[17]
  viability, T/C: 12.3%
[18]
  viability, T/C: 16%
[19]
  viability, T/C: 38.2%
[20]
  viability, T/C: 33%
[21]
  viability, T/C: 16.4%
[22]
  viability, T/C: 9.61%
[23]
  viability, T/C: 9.49%
[24]
  viability, T/C: 5.88%
[25]
  viability, T/C: 32.5%
[26]
  viability, T/C: 22.6%
[27]
  viability, T/C: 29.5%
[28]
  viability, T/C: 6.93%
[29]
  viability, T/C: 4.16%
[30]
  viability, T/C: 3.23%

## Cn1ncnc1[C@H]1c2n[nH]c(=O)c3cc(F)cc(c23)N[C@@H]1c1ccc(F)cc1 + CC(C)NCC(C(=O)N1CCN(c2ncnc3c2C(C)CC3O)CC1)c1ccc(Cl)cc1
Second compound 0.1 µM
  IC50: > 100 nM
Second compound 0.316 µM
  IC50: > 100 nM
Second compound 1 µM
  IC50: > 100 nM
Second compound 3.16 µM
  IC50: < 0.316 nM
Second compound 10 µM
  IC50: < 0.316 nM
Second compound 0.1 µM, first compound 0.000316 µM
  viability, T/C: 91.9%
Second compound 0.1 µM, first compound 0.001 µM
  viability, T/C: 79.1%
Second compound 0.1 µM, first compound 0.00316 µM
  viability, T/C: 79.2%
Second compound 0.1 µM, first compound 0.01 µM
  viability, T/C: 91.9%
[1]
  viability, T/C: 68.6%
[2]
  viability, T/C: 73.4%
Second compound 0.316 µM, first compound 0.000316 µM
  viability, T/C: 73.5%
Second compound 0.316 µM, first compound 0.001 µM
  viability, T/C: 67.9%
Second compound 0.316 µM, first compound 0.00316 µM
  viability, T/C: 59.8%
Second compound 0.316 µM, first compound 0.01 µM
  viability, T/C: 65.7%
[7]
  viability, T/C: 63.6%
[8]
  viability, T/C: 58.3%
Second compound 1 µM, first compound 0.000316 µM
  viability, T/C: 60.1%
Second compound 1 µM, first compound 0.001 µM
  viability, T/C: 51.4%
Second compound 1 µM, first compound 0.00316 µM
  viability, T/C: 51%
Second compound 1 µM, first compound 0.01 µM
  viability, T/C: 53.5%
[13]
  viability, T/C: 60.3%
[14]
  viability, T/C: 51.9%
Second compound 3.16 µM, first compound 0.000316 µM
  viability, T/C: 47%
Second compound 3.16 µM, first compound 0.001 µM
  viability, T/C: 40.3%
Second compound 3.16 µM, first compound 0.00316 µM
  viability, T/C: 45.9%
Second compound 3.16 µM, first compound 0.01 µM
  viability, T/C: 42.9%
[19]
  viability, T/C: 49.5%
[20]
  viability, T/C: 46.1%
Second compound 10 µM, first compound 0.000316 µM
  viability, T/C: 42.8%
Second compound 10 µM, first compound 0.001 µM
  viability, T/C: 44.4%
Second compound 10 µM, first compound 0.00316 µM
  viability, T/C: 37.7%
Second compound 10 µM, first compound 0.01 µM
  viability, T/C: 45.9%
[25]
  viability, T/C: 38%
[26]
  viability, T/C: 37.2%
